Measurements published in patent US12296048B2, “Polymer particles for neutrophil injury” (THE REGENTS OF THE UNIVERSITY OF MICHIGAN, priority 2019, dated 2025).

Test system: mice with LPS-induced ALI
Assay type: in vivo
Method: In a lipopolysaccharide (LPS) mouse model of ALI, LPS administered to the lungs of healthy mice induces rapid recruitment of neutrophils into the lungs.
Poly-A microspheres were injected into the tail vein of mice with LPS-induced ALI at 30 mg/kg.
Male BALB/c or C57BL/6J mice were anesthetized with inhaled isoflurane, and given 50 μL of 0.4 mg/mL LPS orotracheally to induce lung inflammation. Particles (2×10^8 in 100 μL PBS per mouse) were injected at either 2 hrs or 6 hrs post-instillation via tail vein catheter. Methods of euthanasia and sample processing are shared with the P. Aeruginosa model (below) except instead of cytospin BALF, cells were stained with CD45, CD11b, and Ly6G, and were fixed overnight before flow cytometry to determine the % of neutrophils and macrophages in each sample.

## CC(=O)Oc1ccccc1C(=O)O [aspirin]
LPS-ALI mice
  BALF concentration of KC: not
  BALF concentration of MIP2: not
Tail vein injection 1 hr after LPS, Poly-A 30 mg/kg, aspirin in DMSO
  BALF neutrophil count compared to ALI mice with no particles: did not reduce
